Data from patent US7160894B2, “Tricyclic compound” (Asahi Kasei Pharma Corporation, priority 2003, dated 2007).

Key:
[1] = system: thoracic aorta constricted with phenylephrine; assay: Vasoconstriction inhibitory action (Test Example 2); parameters: species or system Rats (Wistar); conditions: test compound 1 μM; rat thoracic aorta constricted with phenylephrine 1 μM
Text: Rats (Wistar, 11-week old) were bleeded to death and laparotomized to take out the thoracic aorta. That aorta was cut into a ring of a length of about 3 mm in a conventional manner (Asano, T., et al., J. Pharmacol. Exp. Ther., 241, pp. 1033–1040 (1987)) and hung in 10-ml organ bath filled with Krebs-Hensright nutrient solution bubbled with a mixed gas of 95% O2 and 5% CO2. One end of the blood vessel was connected to an isometric transducer (FD Pickup TB-912T, Nihon Kohden) and applied with 2.5 g of resting tension, and constriction and relaxation reactions of the aorta were recorded.
The aorta was constricted with phenylephrine (1 μM, Sigma) and then added with a test compound (1 μM), and the vasoconstriction inhibitory action thereof was observed. The vasoconstriction inhibitory actions of the test compounds were calculated as relaxation ratios, which were based on the vasoconstriction with phenylephrine observed immediately before the addition of the test compounds taken as 100%.

[2] = system: ovalbumin-induced constriction of respiratory tract; assay: Respiratory tract constriction suppressing action, intravenous administration (Test Example 3); assay type: in vivo, Hartley guinea pigs; conditions: ovalbumin-immunized guinea pigs, administered from cannula in hind leg vein, measured for 15 minutes
Description: Four-week old Hartley guinea pigs (male) were immunized by intraperitoneal administration of ovalbumin (Sigma, Grade V) in amounts of 1 mg for each animal on the day on which the experiment was started, 3 mg for each animal after 2 days, and 10 mg for each animal after 4 days. Twelve to fourteen days after the final immunization, the ovalbumin-immunized guinea pigs were anesthetized by intraperitoneal administration of about 40 mg/kg of pentobarbital (Somnopentyl), and the tracheas were taken out. Subsequently, a cannula (SP-110, Natsume) was inserted into each trachea, and one end of the cannula was connected to an artificial respirator (Model-b83, Harvard). The aeration conditions were set at 6 ml per kilogram and 60 times per 1 minute. Further, a cannula for medicament administration (JMS wing needle 23G 3/4) was inserted into a hind leg vein. Myoblock (Organon Technica) was administered in an amount of 0.5 mg/kg from the cannula inserted into the hind leg vein to stop the spontaneous breathing, and after 2 or 3 minutes, 0.3 mg/kg of ovalbumin was administered to induce constriction of respiratory tract. The increase of airway resistance value 2 minutes after the induction (measurement apparatuses: pressure transducer TR-603T, respiratory amplifier AR-601G, and recorder RTA-3100, Nihon Kohden Corp.) was confirmed to be above 80 cm H2O or higher, and then, a solution of a test medicament was administered from the cannula inserted into the hind leg vein, and the airway resistance value was continuously measured for 15 minutes after the administration to determine the effect.

[3] = system: ovalbumin-induced constriction of respiratory tract; assay: Respiratory tract constriction suppressing action, administration by inhalation (Test Example 3); assay type: in vivo, Hartley guinea pigs; conditions: ovalbumin-immunized guinea pigs, 2 ml solution by inhalation over 5 minutes
Description: Four-week old Hartley guinea pigs (male) were immunized by intraperitoneal administration of ovalbumin (Sigma, Grade V) in amounts of 1 mg for each animal on the day on which the experiment was started, 3 mg for each animal after 2 days, and 10 mg for each animal after 4 days. Further, the respiratory tract constriction suppression action of the test compounds was also evaluated by inhalation. Twelve to fourteen days after the final sensitization, 10 mg/kg of pyrilamine (Sigma), 5 mg/kg of indomethacin (Wako), or 0.1 mg/kg of propranolol (Sigma) was intraperitoneally administered. Then, 30 minutes after the administration, a 0.1% ovalbumin aqueous solution was inhaled by using a pressurization type nebulizer (PARI-IS2) to induce constriction of the respiratory tract. Ten minutes after the induction, 2 ml of a solution of a test compound prepared at various concentrations was filled in the aforementioned nebulizer, and administered by inhalation over 5 minutes. After the administration of pyrilamine and other drugs, airway resistance value was continuously measured to determine effectiveness.

[4] = system: cerebral hippocampal neurons; assay: Neurite outgrowth action (Test Example 5); assay type: cell-based, Sprague-Dawley rats; conditions: rat hippocampal neurons, 24 hours after addition
Description: From 18 day-old Sprague-Dawley rats, cerebral hippocampal neurons were prepared according to the method of Neuman et al. (Neuman, H. R. et al., J. Neurosci., 22, pp. 854–862, 2002). The prepared neurons were cultured for 24 hours according to the method of Tanaka et al. (Tanaka, H. et al., J. Cell Biol., 158 (2), pp. 321–329, 2002), then the medium was exchanged with fresh medium, and test medicaments of various concentrations or equivalent amounts of vehicle were added. Twenty-four hours after the addition of the medicaments, neurite length of each neuron was measured for the medicament-added group and the no-addition group, and compared. The neurite length was evaluated according to the method of Neuman et al. (Neuman, H. R. et al., J. Neurosci., 22, pp. 854–862, 2002).

[5] = system: lipopolysaccharide-induced pulmonary inflammation; assay: Pulmonary inflammation suppressing action, LPS-induced (Test Example 8); assay type: in vivo, BALB/c female mice; conditions: mice, LPS inhalation, test compound by inhalation over 10 minutes, 3 hours after administration
Text: According to Gonzales de Moraes, V L., et al., Br. J. Pharmacol., 123, pp. 631–6, 1998, suppressing action on pulmonary inflammation was studied. BALB/c female mice (7-week old) were used for the test, as the compound administration group and positive control group, each consisting of 7 mice, as well as the negative control group consisting of 5 mice. For induction of inflammation, a 0.03% physiological saline solution of a lipopolysaccharide (LPS, a mixture derived from Escherichia coli O55 and B5 strains, Sigma) was used. A test compound was dissolved in physiological saline to prepare solutions of various concentrations. The test animals were first inhaled with the aforementioned lipopolysaccharide solution for 10 minutes by using a pressurization type nebulizer (PARI-IS2) to induce inflammation. Then, 1 minute after the completion of the inhalation of the lipopolysaccharide solution, the animals were administered with a solution of test compound at various concentrations over 10 minutes by inhalation using the aforementioned nebulizer. The mice of the positive control group were administered with the same volume of physiological saline instead of the test compound solution over 10 minutes by inhalation. Three hours after the administration of the test compound, pulmonary cavities of the test animals were washed with physiological saline, and the total infiltrated leucocyte (WBC) number was counted.

intraocular pressure = assay: Intraocular pressure reducing action (Test Example 4); assay type: in vivo, Japanese white rabbit; conditions: rabbit, 50 μl of aqueous solution dropped to the left eye
Description: A Japanese white rabbit having a body weight of about 2 kg was placed in a positioner and naturalized for one week before the experiment. An ophthalmologic local anesthesant (Benoxil) was administered to the left eye, and then intraocular pressure was measured by using a tonometer (Classic 30, Solan). The initial value of the intraocular pressure was measured, then 50 μl of an aqueous solution of a test compound was dropped to the left eye at various concentrations, and the intraocular pressure was measured with passage of time.

[6] = system: myosin regulatory light chain; conditions: mesenteric artery, iris smooth muscle, astrocyte; cited from earlier work

Cl.O=C(O)CN1CCC(N2CCc3cncc4cccc2c34)CC1 [Example 17]
vasoconstriction inhibitory action (relaxation ratio) [1]: significant vasoconstriction inhibitory action | improvement of constriction of respiratory tract (airway resistance value) [2]: significantly improved the constriction of respiratory tract | improvement of constriction of respiratory tract (airway resistance value) [3]: significantly improved the constriction of respiratory tract | neurite outgrowth (neurite length) [4]: significant neurite outgrowth axis extension | pulmonary inflammation, total infiltrated leucocyte (WBC) number [5]: significantly improved the pathological condition

Cl.NC(=O)CN1CCC(N2CCc3cncc4cccc2c34)CC1 [Example 20]
vasoconstriction inhibitory action (relaxation ratio) [1]: significant vasoconstriction inhibitory action | improvement of constriction of respiratory tract (airway resistance value) [2]: significantly improved the constriction of respiratory tract | improvement of constriction of respiratory tract (airway resistance value) [3]: significantly improved the constriction of respiratory tract | intraocular pressure reducing action (intraocular pressure): significant intraocular pressure reducing action | neurite outgrowth (neurite length) [4]: significant neurite outgrowth axis extension | pulmonary inflammation, total infiltrated leucocyte (WBC) number [5]: significantly improved the pathological condition

Cl.NCCN[C@H]1CC[C@H](N2CCc3cncc4cccc2c34)CC1 [Example 24]
vasoconstriction inhibitory action (relaxation ratio) [1]: significant vasoconstriction inhibitory action | improvement of constriction of respiratory tract (airway resistance value) [2]: significantly improved the constriction of respiratory tract | improvement of constriction of respiratory tract (airway resistance value) [3]: significantly improved the constriction of respiratory tract | neurite outgrowth (neurite length) [4]: significant neurite outgrowth axis extension | pulmonary inflammation, total infiltrated leucocyte (WBC) number [5]: significantly improved the pathological condition

CC1CNCCN1S(=O)(=O)c1cccc2cnccc12 (centres unmarked) [Example H-7, 1-(5-isoquinolinesulfonyl)-2-methylpiperazine]
inhibition of phosphorylation of the myosin regulatory light chain [6]: inhibits phosphorylation of the myosin regulatory light chain
